Measured values as given in ChEMBL document CHEMBL3430912, “GSK Tres Cantos Anti-Kinetoplastid Screening (TCAKS) Data”.

Tests used:
[1] = system: Leishmania donovani; assay: (§1) GSK_TCAKS: pIC50 Leishmania donovani Imaging: THP-1 Host Macrophages. Assay plates (384-well) were prepared by adding 250nL of compound to each well. For single shot assay, the final compound concentration was 5 uM. […] Automated image analysis was performed with a script developed on Acapella High Content Imaging and Analysis Software (PerkinElmer). Output: THP-1 cell count were reported for each well.; format: functional, organism-based, Homo sapiens
[2] = system: NIH3T3; assay: GSK_TCAKS: pIC50 NIH 3T3 cell line viability assay using luminiscence. Tissue culture surface treated assay plates (1536-well) were used. […] The 100% cells survival control was determined exposing the host-cells to a 0.5% DMSO concentration, whereas the 100% toxicity control was achieved by seeding the cells in presence of Amphotericin B at 50uM. Plates were incubated for four days at 37C, 5% CO2. The assay readout was developed by addition of 5uL of CellTiter-Glo Reagent following the manufacturer's instructions. Luminiscence was measured using a ViewLux.; format: functional, cell-based; details: Mus musculus, NIH3T3, 96 h
[3] = biological target: Sterol 14-alpha demethylase (Trypanosoma cruzi (strain CL Brener), UniProt Q7Z1V1); assay: GSK_TCAKS: pIC50 CYP51 from Trypanosoma cruzi.; format: functional
Chain of Sterol 14-alpha demethylase (Q7Z1V1 whole entry): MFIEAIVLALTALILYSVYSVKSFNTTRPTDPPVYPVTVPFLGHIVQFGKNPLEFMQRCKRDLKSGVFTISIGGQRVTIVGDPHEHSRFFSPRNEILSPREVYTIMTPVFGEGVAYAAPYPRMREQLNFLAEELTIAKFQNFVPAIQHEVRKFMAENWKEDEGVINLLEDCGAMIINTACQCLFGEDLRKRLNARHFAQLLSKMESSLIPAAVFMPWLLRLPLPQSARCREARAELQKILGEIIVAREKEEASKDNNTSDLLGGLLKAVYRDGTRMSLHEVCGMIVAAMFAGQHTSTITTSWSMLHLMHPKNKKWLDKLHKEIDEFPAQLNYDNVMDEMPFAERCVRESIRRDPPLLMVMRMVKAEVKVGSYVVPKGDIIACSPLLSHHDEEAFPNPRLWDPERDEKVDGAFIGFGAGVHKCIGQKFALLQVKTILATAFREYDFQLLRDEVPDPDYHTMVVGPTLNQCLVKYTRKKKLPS

[4] = system: Trypanosoma brucei brucei; assay: GSK_TCAKS: pIC50 Trypanosoma brucei viability assay using fluorescence intensity. Assay plates (1536-well) were prepared by dispensing 25nL of compound solution per well using an Echo acoustic dispenser (Labcyte).; format: functional, organism-based; details: Lister 427, 2 h
[5] = system: Trypanosoma cruzi; assay: GSK_TCAKS: pIC50 Trypanosoma cruzi viability assay using beta-GAL activity. This assay was run at single shot at 5uM compound concentration per well. The biological reagents consisted of NIH-3T3 host cells and trypomastigotes parasitic cells; both cell types were set to a 3.3 * 10^5 cells/mL dilution in assay DMEM by means of a CASY cell counter device using a 60um capillary. 6 uL of the mixture were dispensed per well (about 1 * 10^3 host-cells and 1 * 10^3 parasites) with a Multidrop Combi dispenser. […] In all wells, the percentage of DMSO never exceeded 0.5%. Plates incubated for four days at 37C, 5% CO2. The substrate used for the assay fluorescence intensity (FLINT) readout was resorufin-beta-D-galactopiranoside (Sigma-Aldrich) at 5uM per well. It was diluted in PBS supplemented with the soft detergent Igepal (Fluka).; format: functional, organism-based, Mus musculus; details: Tulahuen, NIH3T3
[6] = system: Trypanosoma cruzi; assay: (§2) GSK_TCAKS: pIC50 Trypanosoma cruzi Imaging: Amastigotes/Cell. […] Cells were then washed once with PBS before infection. T. cruzi trypomastigotes, collected at days 5 to 8 after infection from LLC-MK2 parasite infected cultures, were allowed to swim out for 4h at 37C from a centrifuged pellet (2,500 rpm/10 min/room temperature). Trypomastigotes were then collected and counted in a CASY Cell Counter. Trypomastigotes, in supplemented DMEM, were added to H9c2 cultures in a multiplicity of infection of 1 and incubated for 18 h. Cells were washed once with PBS before incubation of the infected H9c2 monolayer with trypsin (Life-Technologies) to detach cells from the flask. Cells were counted in a CASY Cell Counter using a 150 um capillary and their density set at 5 * 10^4 cells per mL in supplemented assay DMEM. Infected H9c2 were dispensed into 384-well poly-lysine coated assay plates at 50uL per well using a Multidrop Combi dispenser. After seeding them, the plates were incubated at 37C, 5% CO2 for 72h. Cultures were then fixed and stained by addition of 50 uL of a solution containing 8% formaldehyde and 4 uM DRAQ5 DNA dye (BioStatus, UK) per well. […] Five images were collected per well for reliable statistical analysis. Automated image analysis was performed with a script developed on Acapella High Content Imaging and Analysis Software (PerkinElmer). Output: number of amastigotes per cell as infection level measurement.; format: functional, organism-based, Rattus norvegicus; details: H9c2, 4 h
[7] = GSK_TCAKS: pIC50 HepG2 human cell line viability assay using luminiscence. […] Seeding density was checked to ensure that new mono-layers were not more than 50% confluent at the time of harvesting. Cell suspension was added to 500 mL of the same medium at a final density of 1.2 * 10^5 cells/mL. This cell suspension was dispensed (25 uL, 3000 cells per well) into 384-well clear-bottom plates using a Multidrop Combi dispenser. Prior to addition of the cell suspension, the screening compounds (250 nL) were pre-dispensed into the plates with an Echo liquid handler. Plates were incubated for 48 h at 37C, 5% CO2. After incubation, plates equilibrated at room temperature for 30 min before proceeding to develop the luminescent signal. The signal developer, CellTiter-Glo Reagent, was allowed to equilibrate at room temperature for 30 min and added to the plates (25uL per well) using a Multidrop Combi dispenser. Plates were left for 10 min at room temperature for stabilization and then read using a ViewLux.; format: toxicity, cell-based
[8] = system: Trypanosoma cruzi; assay: as §2, with “H2C9” for “Trypanosoma cruzi”, “H9c2 Host Cardiomyocytes.” for “Amastigotes/Cell.”, “Number” for “number”, “H9c2 Host Cardiomyocytes nuclei to determine drug-related cytotoxicity.” for “amastigotes per cell as infection level measurement.”; format: functional, organism-based, Rattus norvegicus; details: H9c2, 4 h
[9] = system: Leishmania donovani; assay: as §1, with “Amastigotes/Macrophages.” for “THP-1 Host Macrophages.”, “Average number of amastigotes per macrophage” for “THP-1”, “cell” for “cell count”; format: functional, organism-based, Homo sapiens; details: THP-1
[10] = system: Trypanosoma cruzi; assay: GSK_TCAKS: pIC50 Trypanosoma cruzi Imaging: Infected Cells. […] Cells were then washed once with PBS before infection. T. cruzi trypomastigotes, collected at days 5 to 8 after infection from LLC-MK2 parasite infected cultures, were allowed to swim out for 4h at 37C from a centrifuged pellet (2,500 rpm/10 min/room temperature). Trypomastigotes were then collected and counted in a CASY Cell Counter. Trypomastigotes, in supplemented DMEM, were added to H9c2 cultures in a multiplicity of infection of 1 and incubated for 18 h. Cells were washed once with PBS before incubation of the infected H9c2 monolayer with trypsin (Life-Technologies) to detach cells from the flask. Cells were counted in a CASY Cell Counter using a 150 um capillary and their density set at 5 * 10^4 cells per mL in supplemented assay DMEM. Infected H9c2 were dispensed into 384-well poly-lysine coated assay plates at 50uL per well using a Multidrop Combi dispenser. After seeding them, the plates were incubated at 37C, 5% CO2 for 72h. Cultures were then fixed and stained by addition of 50 uL of a solution containing 8% formaldehyde and 4 uM DRAQ5 DNA dye (BioStatus, UK) per well. […] Five images were collected per well for reliable statistical analysis. Automated image analysis was performed with a script developed on Acapella High Content Imaging and Analysis Software (PerkinElmer). Output: percentage of infected cells per well as a second infection marker.; format: functional, organism-based, Rattus norvegicus; details: H9c2, 4 h
[11] = system: Leishmania donovani; assay: GSK_TCAKS: pIC50 Leishmania donovani viability assay using fluorescence intensity. Assay plates (1536-well) were prepared by adding 30nL per well of compound. For single shot assay, the final compound concentration was 5uM. […] Briefly, eGFP LdBOB axenic amastigotes were harvested, fixed and counted in a CASY cell counter (Roche-Applied Science). A final concentration of 1.5 * 10^5 cells per well were prepared in amastigote media containing 500 U/mL penicillin/streptomycin (Invitrogen) and 6uL was dispensed to each experimental well using a Multidrop Combi dispenser (Thermo Scientific). 6uL of assay media was dispensed to control columns used as reference for 100% compound response. Following incubation for 72 h at 37C, 5% CO2, 2 uL of resazurin was added to each well at a final concentration of 0.5 mM in phosphate buffered saline (PBS) with IGEPAL (Sigma-Aldrich), 0.05% (v/v).; format: functional, organism-based
[12] = system: Leishmania donovani; assay: as §1, with “Infected” for “THP-1 Host”, “Percent of infected macrophage cells” for “THP-1 cell count”; format: functional, organism-based, Homo sapiens; details: THP-1
[13] = system: Trypanosoma brucei brucei; assay: GSK_TCAKS: pIC50 Trypanosoma brucei viability assay using luminiscence. Assay plates (1536-well) were prepared. T. brucei cultures were harvested and counted in a CASY cell counter. A parasite suspension was prepared at a final concentration of 5 * 10^4 cells/mL in complete HMI9 medium and 6uL was dispensed to all wells containing compounds using a Multidrop Combi dispenser. 6uL of HMI9 media with 0.4% DMSO were dispensed to control columns. Plates were incubated for 24 h at 37C, 5% CO2 then tempered for 10 min at room temperature. ATP content was quantified by adding 4 uL of CellTiter-Glo Reagent (Promega) according to the manufacturer's instructions. Luminescence was measured using a ViewLux.; format: functional, organism-based; details: Lister 427, CASY

Row | Compound | IC50 [1] [µM] | IC50 [2] [µM] | IC50 [3] [µM] | IC50 [4] [µM] | IC50 [5] [µM] | IC50 [6] [µM] | IC50 at 48 h [7] [µM] | IC50 [8] [µM] | IC50 [9] [µM] | IC50 [10] [µM] | IC50 [11] [µM] | IC50 [12] [µM] | IC50 [13] [µM]
1 | CCOc1ccc(NC(=O)C=Cc2ccc(CC)o2)cc1 | 20 | 31.6 | > 100 | 15.8 | 2 | 15.8 | 79.4 | > 50.1 | 25.1 | 25.1 | 20 | 50.1 | 
2 | COc1cc(NC(=O)Nc2cccc(CNC(=O)OC3CCCCC3)c2)ccc1-c1cnco1 | 10 | 10 | 25.1 | 0.251 | 1 | 31.6 | 39.8 | 15.8 | 20 | 25.1 | > 50.1 | > 50.1 | 
3 | CC(C)Nc1nccc(-c2c(-c3ccc(F)cc3)ncn2C2CCOCC2)n1 | > 50.1 | > 50.1 | > 100 | 5.01 | 0.282 | 0.2 | > 100 | > 50.1 | 15.8 | 0.316 | 25.1 | 25.1 | 
4 | CN(C)c1ccc(-c2cc3nccnc3c(OC[C@H]3CCCNC3)n2)cn1 | 20 | 15.8 |  | 2 | 1.58 | 1.58 | 63.1 | 20 | 25.1 | > 50.1 | > 50.1 | 20 | 
5 | CC(Cn1ccnc1)NC(=O)C=Cc1ccc(Cl)cc1 (stereo not drawn) | > 50.1 | > 50.1 | 0.158 | > 39.8 | 0.398 | 0.631 | > 100 | > 50.1 | > 50.1 | 1 | > 50.1 | > 50.1 | 
6 | NS(=O)(=O)c1ccc(Nc2nccc(-c3cnn4ncccc34)n2)cc1 | 0.251 |  | > 100 | 0.0794 | 2.51 | 0.794 | > 100 | 0.316 | 1 | 15.8 | 0.794 | 2 | 0.158
7 | CC(=O)Nc1ccc(Nc2nccc(-c3cnn4ncccc34)n2)cc1C(F)(F)F | 0.01 |  | 31.6 | 0.0316 | 0.0501 | 0.2 | > 100 | 0.0631 | 0.0158 | 0.501 | 0.2 | 0.0251 | 0.0501
8 | O=C1OCc2ccc(Nc3nccc(-c4cnn5ncccc45)n3)cc21 | 0.00794 |  | > 100 | 0.00398 | 0.0251 | 0.0316 | > 100 | 0.0251 | 0.0126 | 0.0631 | 0.0631 | 0.0158 | 0.02
9 | Fc1ccc(Nc2nc(-c3ccccn3)cs2)cc1 | > 50.1 |  | 15.8 | 25.1 | 2.51 | 5.01 | > 100 | 1 | 6.31 | 5.01 | 20 | 10 | 25.1
10 | O=c1nc(NCCCNCc2cc(Br)cc(Br)c2)[nH]c2ccsc12 | 15.8 |  | 31.6 | 0.1 | 0.631 | 0.398 | 50.1 | 25.1 | 2.51 | 0.631 | 15.8 | 5.01 | 0.1
11 | O=c1cc(NCCCNCc2c[nH]c3ccc(Br)cc23)[nH]c2ccccc12 | > 50.1 |  | > 100 | 1 | > 50.1 | 31.6 | > 100 | > 50.1 | > 50.1 | > 50.1 | > 50.1 | > 50.1 | 0.794
12 | Cc1cc(Br)sc1CNCCCNc1cc(=O)c2ccccc2[nH]1 | 20 |  | 63.1 | 0.0631 | 1.58 | 0.501 | 39.8 | 25.1 | 20 | 0.794 | > 50.1 | 25.1 | 0.1
13 | O=C(NCC1CCCCN1C(=O)c1cccc2ccccc12)c1ccccc1 (stereo not drawn) | > 50.1 |  | > 100 | 0.398 | 6.31 | 3.16 | > 100 | > 50.1 | > 50.1 | 5.01 | > 50.1 | > 50.1 | 0.398
14 | O=c1cc(NCCCNCc2cc(C(F)(F)F)cs2)[nH]c2ccccc12 | 20 |  | 25.1 | 0.316 | 7.94 | 5.01 | 63.1 | 31.6 | 25.1 | > 50.1 | > 50.1 | 39.8 | 0.398
15 | COc1ccc2nccc(NC(=O)C3(OC)CCN(CC(O)c4ccc5c(c4)OCCO5)CC3)c2n1 (stereo not drawn) | 25.1 |  | 1 | 0.398 | 0.251 | 0.126 | 39.8 | 15.8 | 6.31 | 0.316 | 10 | 20 | 0.501
16 | NCc1ccc2c(Cl)cc(Cl)c(O)c2n1 | 20 |  | 39.8 | 0.398 | 2.51 | 1.26 | 25.1 | 6.31 | 2 | 2 | 6.31 | 2 | 0.2
17 | Oc1c(-c2nnc(CCc3ccccc3)[nH]2)ncc2cccnc12 | 20 |  | > 100 | 0.794 | 0.2 | 0.2 | 39.8 | 15.8 | 3.16 | 0.2 | 0.316 | 3.98 | 1.58
